Experimental data published in ChEMBL document CHEMBL1149515, “Small molecule inhibitors of IgE synthesis” (Bioorg Med Chem Lett, 2006).
Active and inactive are the calls of the source. The calls are words filed in the database; no cut-off is given here.

Assays:
PBL = test: Inhibition of IL4-induced IgE synthesis in human peripheral blood lymphocytes; assay type: functional, cell-based
[1] = Stability in human liver microsome at 1uM; assay type: ADME; conditions: liver microsomes
CYP1A1 = test: Half life assessed as CYP1A1 mediated metabolism at 1 uM; assay type: ADME
[2] = Lipophilicity, LogD of the compound; assay type: physicochemical; conditions: octanol/water
Salmonella typhi = test: Mutagenic activity against […] by Ames assay; assay type: functional, organism-based; conditions: Salmonella enterica subsp. enterica […]
CYP1A2 = test: Half life assessed as CYP1A2 mediated metabolism at 1 uM; assay type: ADME

Compound	IC50 (PBL)	half-life at 1 µM [1]	half-life at 1 µM (CYP1A1)	logD [2]	Activity (Salmonella typhi)	half-life at 1 µM (CYP1A2)
CC(C)(C)NC(=O)c1cn2ccnc2c(N2CCN(c3ncccn3)CC2)n1	39 nM	3 min	13 min	3.7	inactive	
CN1CCC(NC(=O)c2cn3ccnc3c(N3CCN(c4ccccn4)CC3)n2)CC1	37 nM	> 120 min	45 min			95 min
CCN1CCC(NC(=O)c2nc(N3CCN(c4ncccn4)CC3)c3nccn3c2C)CC1	49 nM	> 120 min	> 120 min	1.2		
c1cnc(N2CCN(c3nccn4ccnc34)CC2)nc1	18 nM	45 min	< 2 min	2	Active	2 min
c1cn2ccnc2c(-c2ccc(N3CCCC3)nc2)n1	55 nM	14 min	< 1 min	2.5		< 1 min
O=C(NC1CCNC1)c1cn2ccnc2c(N2CCN(c3ccccn3)CC2)n1 (stereo not drawn)	118 nM	> 120 min				> 120 min
c1cn2ccnc2c(N2CCN(C3CCCC3)CC2)n1	> 10000 nM	> 120 min				> 120 min
O=C(CCc1cnc2c(N3CCN(c4ncccn4)CC3)nccn12)N1CCOCC1	> 10000 nM		> 120 min			> 120 min
